Patent US20040197396A1, “Anhydrous crystal form of valaciclovir hydrochloride” (priority 2001, published 2004)
Structures can show the parent of a compound that is named as a salt.

Tests used:
[1] = Thermogravimetric analysis (TGA); type: physicochemical; conditions: from 182-310° C.; scan rate 10° C. per minute
Procedure: Thermogravimetric analysis was carried out on a Perkin-Elmer Pyris-1 TGA system. Scan rate of 10° C. per minute. Sample size 3.757 mg. The TGA trace is provided at FIG. 6.

[2] = Stability and hygroscopicity of the crystal form (stated, no method); type: physicochemical; conditions: statement in words
[3] = Water content by Karl Fisher titration; type: physicochemical; conditions: Example 11 sample
Procedure: The water of hydration content is measured by the Karl Fischer method which is well known in the art and is described in the 1990 US Pharmacopoeia at pages 1619-1621, and the European Pharmacopoeia, second edition (1992) part 2, sixteenth fascicule at v. 3.5-6.1. Water content (by Karl Fisher titration): 0.61% w/w

[4] = relative to acyclovir; statement in words; cited from earlier work

CC(C)[C@H](N)C(=O)OCCOCn1cnc2c(=O)[nH]c(N)nc21 [Form 2 Valaciclovir Hydrochloride, valaciclovir hydrochloride]
Weight loss associated with melting/decomposition [1]: 42.97 % w/w
Hygroscopicity [2]: essentially non-hygroscopic
Stability of the crystal form [2]: stable
Water content (by Karl Fisher titration) [3]: 0.61 % w/w

CC(C)[C@H](N)C(=O)OCCOCn1cnc2c(=O)[nH]c(N)nc21 [valaciclovir]
Bioavailability [4]: much improved bioavailability
